This note sets out measurements from patent publication US20120321584A1, “PROCESSES FOR PREPARING AMINE SALTS OF KMUP-3 AND USE THEREOF” (KAOHSIUNG MEDICAL UNIVERSITY, priority 2011, published 2012).

Where a name gives a salt, the structure may show the parent alone.

Common to all, as to type: cell-based
What all share (conditions): KMUPs salts 10 μM, 120 min; vehicle (without treatment) = 100 %

One assay deals with PDE-3. The assay is described as follows: Protein expression of PDE-3 by optical density after KMUPs salts (Table 2). The protocol:
(§1) Protein extraction and Western blotting analysis. Briefly, after incubation with test agents in an organ bath, isolated beating atrium was frozen and pulverized to a fine powder at the temperature of liquid nitrogen. Atrium powders were then homogenized in protein extraction reagent (Pierce Biotechnology, Inc., Rockford, Ill.) by sonication. The samples were sonicated 10 sec three times and centrifuged at 13,000 rpm at 4° C. for 30 min. The protein concentrations of supernatants were determined by using bovine serum albumin as the standard. The cell extracts were then boiled in a ratio of 4:1 with sample buffer (Tris 100 mM, pH 6.8; glycerol 20%, Sodium dodecyl sulfate (SDS) 4% and bromophenol blue 0.2%). Electrophoresis was performed using 10% SDS-PAGE and transferred to nitrocellulose membranes (Millipore Corp., Billerica, Mass.). The membrane was blocked with Tris-buffered saline (TBS; 20 mM Tris and 137 mM NaCl, pH 7.6) containing 0.1% Tween 20 (TTBS) and 5% nonfat milk at room temperature for 1 h, washed with TTBS, and then incubated overnight at 4° C. in the appropriate primary antibody for PKARI, RhoA, ROCKII, p-CIP-17, CPI-17 and PKG1α1β. […] The intensity of the bands was measured by densitometry. eNOS or phosphorylated eNOS were extracted from cell culture of neonatal myocytes, PA ring and aortic ring (2-3 mm) of rats and measured by Western blotting analysis.

A further assay relates to eNOS. The assay can be described thus: Protein expression of eNOS by optical density after KMUPs salts (Table 2). The protocol: as §1
In another assay the test system is ROCKII. The assay can be described thus: Protein expression of ROCKII by optical density after KMUPs salts (Table 2). On the procedure:
as §1

The next assay concerns PDE-4. The assay is described as follows: Protein expression of PDE-4 by optical density after KMUPs salts (Table 2). On the procedure: as §1
Another assay concerns PDE-5. The assay can be described thus: Protein expression of PDE-5 by optical density after KMUPs salts (Table 2). On the procedure:
as §1

Regarding `Cn1c(=O)c2c(ncn2CCN2CCN(c3ccc([N+](=O)[O-])cc3)CC2)n(C)c1=O` [KMUP-3-HCl], the “PDE-3 protein expression, optical density (%)” value in the assay with PDE-3 was determined as 55 ± 2.5%. For the same compound, the “eNOS protein expression, optical density (%)” value in the assay with eNOS stood at 138 ± 5.2%. Besides, the “ROCKII protein expression, optical density (%)” value with ROCKII was 42 ± 2.2%. The “PDE-4 protein expression, optical density (%)” value in the assay on PDE-4 is 48 ± 2.1%. Further, in the assay with PDE-5, the “PDE-5 protein expression, optical density (%)” value was 48 ± 1.9%.
